How the values were obtained:
[1] = molecular target: T1, BRD4 Bromodomain 1 (BRD4 BD1) (Homo sapiens, UniProt O60885); assay: AlphaScreen binding assay, BRD4 BD1; conditions: His-tagged BRD4 BD1 50 nM, biotinylated H4 (1-21) K5/8/12/16 tetra-acetylated peptide 50 nM, compounds listed under IC50 range headings
T1 construct: 44-168 and BRD4 BD2
Method in brief: (§1)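 An AlphaScreen competition format was used with His-BRD4 BD1 or BD2 and biotin-H4 K5/8/12/16-acetyl peptide, each at matched final levels of 50 nM (BD1) or 100 nM (BD2). Incubation in HEPES/NaCl buffer with 0.1% BSA and 0.01% Triton X-100 ran ≥1 h before IC50 determination.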

[2] = tested on: acute myelocytic leukemia (AML) cell line MV4-11; assay: Oncology cell growth assay (3-day proliferation, CellTiter-Glo); type: cell-based; conditions: Homo sapiens, MV4-11, 72 h, MV4-11 cells, 3000 cells/well, compounds listed under IC50 range headings, read-out: MV411 IC50 (gIC50, inhibition of proliferation)
Method in brief: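 MV4-11 AML cells (RPMI 1640, 10% FBS) plated at 3000 cells/well and exposed 72 h to compound at final 10 to 0.0045 μM (3-fold series). Viability read by CellTiter-Glo luminescence; gIC50 from four-parameter logistic fit between DMSO control and no-cell background.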

[3] = molecular target: T2, BRD4 Bromodomain 2 (BRD4 BD2) (Homo sapiens, UniProt O60885); assay: AlphaScreen binding assay, BRD4 BD2; conditions: His-tagged BRD4 BD2 100 nM, biotinylated H4 (1-21) K5/8/12/16 tetra-acetylated peptide 100 nM, compounds listed under IC50 range headings
T2 construct: 333-460 were cloned, expressed, and purified to homogeneity
Method in brief: as §1

Structure (SMILES)	IC50 [1] [nM]	IC50 [2] [nM]	IC50 [3] [nM]
CC(=O)N1c2ccc(-c3cnn(C4CC4)c3)c(Oc3cccc(C)n3)c2CC[C@@H]1C [I-256, (S)-1-(6-(1-cyclopropyl-1H-pyrazol-4-yl)-2-methyl-5-(6-methylpyridin-2-yloxy)-3,4-dihydroquinolin-1 (2H)-yl)ethanone]	100 to 1000	< 500	< 50
CC(=O)N1c2ccc(-c3cnn(C4CC4)c3)c(Oc3ccccc3F)c2CC[C@@H]1C [I-210, (S)-1-(6-(1-cyclopropyl-1H-pyrazol-4-yl)-5-(2-fluorophenoxy)-2-methyl-3,4-dihydroquinolin-1(2H)-yl)ethanone]	100 to 1000	< 500	< 50
COC(=O)N1c2ccc(-c3cnn(C4CCNCC4)c3)c(Oc3cnccn3)c2CC[C@@H]1C [I-526]	1000 to 10000	< 500	50 to 500
COC(=O)N1c2ccc(-c3cnn([C@H]4CCNC[C@H]4F)c3)c(Oc3ccc(F)cc3)c2CC[C@@H]1C [I-366, methyl (2 S)-5-(4-fluorophenoxy)-6-{1-[(3R,4S)-3-fluoropiperidin-4-yl]-1H-pyrazol-4-yl}-2-methyl-1,2,3,4-tetrahydroquinoline-1-carboxylate]	100 to 1000	< 500	< 50
COC(=O)N1c2ccc(-c3cnn(C4CCNCC4)c3)c(Oc3ncc(F)cn3)c2CC[C@@H]1C [I-533]	1000 to 10000	< 500	50 to 500
COC(=O)N1c2ccc(-c3cnn(C4CCNCC4)c3)c(Oc3cccc(Cl)c3C#N)c2CC[C@@H]1C [I-149, (S)-methyl 5-(3-chloro-2-cyanophenoxy)-2-methyl-6-(1-(piperidin-4-yl)-1H-pyrazol-4-yl)-3,4-dihydroquinoline-1(2H)-carboxylate]	100 to 1000	< 500	< 50
CC(=O)N1c2ccc(-c3cnn(C4CCNCC4)c3)c(Oc3ccnc(C(F)(F)F)n3)c2CC[C@@H]1C [I-515]	1000 to 10000	500 to 1000	50 to 500
CC(=O)N1c2ccc(-c3cnn(C4CC4)c3)c(Oc3cc(C)ccn3)c2CC[C@@H]1C [I-255, 1-[(2S)-6-(1-cyclopropyl-1H-pyrazol-4-yl)-2-methyl-5-[(4-methylpyridin-2-yl)oxy]-1,2,3,4-tetrahydroquinolin-1-yl]ethan-1-one]	100 to 1000	< 500	< 50
COC(=O)N1c2ccc(-c3cnn(C4CC4)c3)c(OCCC3COC3)c2CC[C@@H]1C [I-30, (S)-methyl 6-(1-cyclopropyl-1H-pyrazol-4-yl)-2-methyl-5-(2-(oxetan-3-yl)ethoxy)-3,4-dihydroquinoline-1(2H)-carboxylate]	1000 to 10000	< 500	50 to 500
CC(=O)N1c2ccc(-c3cnn(CC(C)(C)O)c3)c(Oc3ncc(F)cn3)c2CC[C@@H]1C [I-551]	100 to 1000	< 500	< 50
CC(=O)N1c2ccc(-c3cnn(C4CC4)c3)c(OCCN3CCCS3(=O)=O)c2CC[C@@H]1C [I-44, 2-(2-{[(2S)-1-acetyl-6-(1-cyclopropyl-1H-pyrazol-4-yl)-2-methyl-1,2,3,4-tetrahydroquinolin-5-yl]oxy}ethyl)-1λ^6,2-thiazolidine-1,1-dione]	100 to 1000	500 to 1000	< 50
COC(=O)N1c2ccc(-c3cnn(C4CC4)c3)c(Oc3ccc(Cl)cc3)c2CC[C@@H]1C [I-214, (S)-methyl 5-(4-chlorophenoxy)-6-(1-cyclopropyl-1H-pyrazol-4-yl)-2-methyl-3,4-dihydroquinoline-1(2H)-carboxylate]	1000 to 10000	< 500	< 50
COC(=O)N1c2ccc(-c3cnn(C4CC4)c3)c(Oc3ccc(C(N)=O)cc3)c2CC[C@@H]1C [I-216, (S)-methyl 5-(4-carbamoylphenoxy)-6-(1-cyclopropyl-1H-pyrazol-4-yl)-2-methyl-3,4-dihydroquinoline-1(2H)-carboxylate]	100 to 1000	< 500	< 50
COC(=O)N1c2ccc(-c3cnn(CCS(C)(=O)=O)c3)c(Oc3ncccc3C(N)=O)c2CC[C@@H]1C [I-586]	1000 to 10000	> 1000	50 to 500
CCCOc1c(-c2ccc(OCCN(C)C)cc2)ccc2c1CC[C@H](C)N2C(C)=O [I-486]	1000 to 10000	< 500	50 to 500
CC(=O)N1c2ccc(-c3cnn(C4CCNCC4)c3)c(Oc3ccc(C(N)=O)cn3)c2CC[C@@H]1C [I-523]	1000 to 10000	> 1000	50 to 500
CC(=O)N1c2ccc(-c3cnn(CCO)c3)c(OCC(C)C)c2CC[C@@H]1C [I-422]	100 to 1000	< 500	< 50

Structure (SMILES)	IC50 [1] [nM]	IC50 [2] [nM]	IC50 [3] [nM]
CC1CCc2c(ccc(-c3cnn(C4CC4)c3)c2Oc2ccccc2)N1C(=O)C1CC1 (stereo not drawn) [I-598]	100 to 1000	< 500	50 to 500
CC(=O)N1c2ccc(-c3cnn(C4CC4)c3)c(OCC(=O)N3CCCCC3)c2CC[C@@H]1C [I-8, (S)-2-(1-acetyl-6-(1-cyclopropyl-1H-pyrazol-4-yl)-2-methyl-1,2,3,4-tetrahydroquinolin-5-yloxy)-1-(piperidin-1-yl)ethanone]	100 to 1000	< 500	50 to 500
CC(=O)N1c2ccc(-c3cnn(C4CCNCC4)c3)c(Oc3ncccc3C(N)=O)c2CC[C@@H]1C [I-520]	1000 to 10000	> 1000	50 to 500
CC(=O)N1c2ccc(-c3cnn(C4CC4)c3)c(OCC3CC3)c2CC[C@@H]1C [I-390]	100 to 1000	< 500	< 50
CC(=O)N1c2ccc(-c3cnn(C4CC4)c3)c(Oc3nccs3)c2CC[C@@H]1C [I-83, (S)-1-(6-(1-cyclopropyl-1H-pyrazol-4-yl)-2-methyl-5-(thiazol-2-yloxy)-3,4-dihydroquinolin-1(2H)-yl)ethanone]	1000 to 10000	< 500	< 50
CC(=O)N1c2ccc(-c3cnn(C4CCNCC4)c3)c(Oc3cc(C4CC4)ncn3)c2CC[C@@H]1C [I-517]	1000 to 10000	< 500	50 to 500
C[C@H]1CCc2c(ccc(-c3cnn(C4CNC4)c3)c2Oc2ccc(F)cc2)N1C(=O)C1CC1 [I-170, (S)-(6-(1-(azetidin-3-yl)-1H-pyrazol-4-yl)-5-(4-fluorophenoxy)-2-methyl-3,4-dihydroquinolin-1 (2H)-yl)(cyclopropyl)methanone]	100 to 1000	< 500	< 50
CCN1CC(Oc2c(-c3cnn(C4CC4)c3)ccc3c2CC[C@H](C)N3C(C)=O)C1 [I-253, (S)-1-(6-(1-cyclopropyl-1H-pyrazol-4-yl)-5-(1-ethylazetidin-3-yloxy)-2-methyl-3,4-dihydroquinolin-1(2H)-yl)ethanone]	≥ 10000	> 1000	≥ 500
C[C@H]1CCc2c(ccc(-c3cnn(C4CCNCC4)c3)c2Oc2ccc(F)c(Cl)c2)N1C(=O)C1CC1 [I-169, (S)-(5-(3-chloro-4-fluorophenoxy)-2-methyl-6-(1-(piperidin-4-yl)-1H-pyrazol-4-yl)-3,4-dihydroquinolin-1(2H)-yl)(cyclopropyl)methanone]	100 to 1000	< 500	< 50
CC(=O)N1c2ccc(-c3cnn(C4CC4)c3)c(OCC(F)F)c2CC[C@@H]1C [I-36, (S)-1-(6-(1-cyclopropyl-1H-pyrazol-4-yl)-5-(2,2-difluoroethoxy)-2-methyl-3,4-dihydroquinolin-1(2H)-yl)ethanone]	1000 to 10000	500 to 1000	< 50
CC=Cn1c(Oc2c(-c3cnn(C4CC4)c3)ccc3c2CC[C@H](C)N3C(C)=O)nc2ccccc21 (single isomer, unassigned) [I-352]	1000 to 10000	500 to 1000	50 to 500
CC(=O)N1c2ccc(-c3cnn(C4COC4)c3)c(OC[C@@H]3CCNC3)c2CC[C@@H]1C [I-600]	100 to 1000	> 1000	50 to 500
COC(=O)N1c2ccc(-c3cnn(C4CCNCC4)c3)c(Oc3ccc(C#N)cc3F)c2CC[C@@H]1C [I-135, (S)-methyl 5-(4-cyano-2-fluorophenoxy)-2-methyl-6-(1-(piperidin-4-yl)-1H-pyrazol-4-yl)-3,4-dihydroquinoline-1(2H)-carboxylate]	100 to 1000	< 500	< 50
CCCOc1c(-c2ccc(NS(C)(=O)=O)cn2)ccc2c1CC[C@H](C)N2C(C)=O [I-115, (S)—N-(6-(1-acetyl-2-methyl-5-propoxy-1,2,3,4-tetrahydroquinolin-6-yl)pyridin-3-yl)methanesulfonamide]	1000 to 10000	> 1000	50 to 500
CCCOc1c(C2CCN(C(=O)NCC)CC2)ccc2c1CC[C@H](C)N2C(C)=O [I-356, (S)-4-(1-acetyl-2-methyl-5-propoxy-1,2,3,4-tetrahydroquinolin-6-yl)-N-ethylpiperidine-1-carboxamide]	≥ 10000	> 1000	50 to 500
CC(=O)N1c2ccc(-c3cnn(CCO)c3)c(Oc3ncc(C4CC4)cn3)c2CC[C@@H]1C [I-547]	100 to 1000	< 500	< 50
CC(=O)N1c2ccc(-c3cnn(CC(C)(C)O)c3)c(OC3CCC3)c2CC[C@@H]1C [I-410]	1000 to 10000	< 500	< 50

Reference: US10611750B2, “Tetrahydroquinoline compositions as bet bromodomain inhibitors” (FORMA Therapeutics, Inc., priority 2013, dated 2020)
